Measurements as given in patent publication US9179678B2, “Substituted [1,2,4]triazoles and substituted tetrazoles as herbicides” (SYNGENTA LIMITED, priority 2012, dated 2015).

Key:
Type in all cases: in vivo
[1] = test system: Alopecurus myosuroides (ALOMY); assay: Post-emergence glasshouse herbicide test; settings: POST Application, 1000 g/h, after 13 days
Protocol: (§1) Seeds of a variety of test species are sown in standard soil in pots (Alopecurus myosuroides (ALOMY), Setaria faberi (SETFA), Echinochloa crus-galli (ECHCG), Solanum nigrum (SOLNI), Amaranthus retoflexus (AMARE), Ipomoea hederacea (IPOHE)). After cultivation for one day (pre-emergence) or after 8 days cultivation (post-emergence) under controlled conditions in a glasshouse (at 24/16° C., day/night; 14 hours light; 65% humidity), the plants are sprayed with an aqueous spray solution derived from the formulation of the technical active ingredient in acetone/water (50:50) solution containing 0.5% Tween 20 (polyoxyethelyene sorbitan monolaurate, CAS RN 9005-64-5). Compounds ae applied at 1000 g/h. The test plants are then grown in a glasshouse under controlled conditions in a glasshouse (at 24/16° C., day/night; 14 hours light; 65% humidity) and watered twice daily. After 13 days for pre and post-emergence, the test is evaluated for the percentage damage caused to the plant. The biological activities are shown in the following table on a five point scale (5=80-100%; 4=60-79%; 3=40-59%; 2=20-39%; 1=0-19%).

[2] = test system: Amaranthus retoflexus (AMARE); assay: Post-emergence glasshouse herbicide test; settings: POST Application, 1000 g/h, after 13 days
Protocol: as §1

[3] = test system: Echinochloa crus-galli (ECHCG); assay: Post-emergence glasshouse herbicide test; settings: POST Application, 1000 g/h, after 13 days
Protocol: as §1

[4] = test system: Ipomoea hederacea (IPOHE); assay: Post-emergence glasshouse herbicide test; settings: POST Application, 1000 g/h, after 13 days
Protocol: as §1

Solanum nigrum (SOLNI) [5] = assay: Post-emergence glasshouse herbicide test; settings: POST Application, 1000 g/h, after 13 days
Protocol: as §1

Setaria faberi (SETFA) [6] = assay: Post-emergence glasshouse herbicide test; settings: POST Application, 1000 g/h, after 13 days
Protocol: as §1, with “Compounds ae applied at 1000 g/h.” left out

[7] = test system: Alopecurus myosuroides (ALOMY); assay: Pre-emergence glasshouse herbicide test; settings: PRE Application, 1000 g/h, after 13 days
Protocol: as §1

[8] = test system: Amaranthus retoflexus (AMARE); assay: Pre-emergence glasshouse herbicide test; settings: PRE Application, 1000 g/h, after 13 days
Protocol: as §1

[9] = test system: Echinochloa crus-galli (ECHCG); assay: Pre-emergence glasshouse herbicide test; settings: PRE Application, 1000 g/h, after 13 days
Protocol: as §1

[10] = test system: Ipomoea hederacea (IPOHE); assay: Pre-emergence glasshouse herbicide test; settings: PRE Application, 1000 g/h, after 13 days
Protocol: as §1

Setaria faberi (SETFA) [11] = assay: Pre-emergence glasshouse herbicide test; settings: PRE Application, 1000 g/h, after 13 days
Protocol: as §1

Solanum nigrum (SOLNI) [12] = assay: Pre-emergence glasshouse herbicide test; settings: PRE Application, 1000 g/h, after 13 days
Protocol: as §1

| Structure (SMILES) | percentage damage caused to the plant, ALOMY [1] | percentage damage caused to the plant, AMARE [2] | percentage damage caused to the plant, ECHCG [3] | percentage damage caused to the plant, IPOHE [4] | percentage damage caused to the plant, SOLNI (Solanum nigrum (SOLNI) [5]) | percentage damage caused to the plant, SETFA (Setaria faberi (SETFA) [6]) | percentage damage caused to the plant, ALOMY [7] | percentage damage caused to the plant, AMARE [8] | percentage damage caused to the plant, ECHCG [9] | percentage damage caused to the plant, IPOHE [10] | percentage damage caused to the plant, SETFA (Setaria faberi (SETFA) [11]) | percentage damage caused to the plant, SOLNI (Solanum nigrum (SOLNI) [12]) |
| --- | --- | --- | --- | --- | --- | --- | --- | --- | --- | --- | --- | --- |
| Cn1nnnc1NC(=O)c1nc2cccnc2n(C)c1=O [Compound 4.001] | 1 (1=0-19%) | 5 (5=80-100%) | 5 (5=80-100%) | 4 (4=60-79%) | 5 (5=80-100%) | 2 (2=20-39%) | 1 (1=0-19%) | 5 (5=80-100%) | 4 (4=60-79%) | 3 (3=40-59%) | 1 (1=0-19%) | 5 (5=80-100%) |
| Cn1nnnc1NC(=O)c1nc2cccnc2n(-c2ccccc2)c1=O [Compound 4.002] | 1 (1=0-19%) | 2 (2=20-39%) | 1 (1=0-19%) | 1 (1=0-19%) | 3 (3=40-59%) | 1 (1=0-19%) | 1 (1=0-19%) | 1 (1=0-19%) | 1 (1=0-19%) | 1 (1=0-19%) | 1 (1=0-19%) | 1 (1=0-19%) |
| Cn1nnnc1NC(=O)c1nc2ccccc2n(C)c1=O [Compound 5.002] | 1 (1=0-19%) | 5 (5=80-100%) | 4 (4=60-79%) | 5 (5=80-100%) | 5 (5=80-100%) | 1 (1=0-19%) | 1 (1=0-19%) | 5 (5=80-100%) | 5 (5=80-100%) | 5 (5=80-100%) | 1 (1=0-19%) | 5 (5=80-100%) |
| Cc1cccc(-n2c(=O)c(C(=O)Nc3nnnn3C)nc3ccccc32)n1 [Compound 5.003] | 5 (5=80-100%) | 5 (5=80-100%) | 5 (5=80-100%) | 5 (5=80-100%) | 5 (5=80-100%) | 5 (5=80-100%) | 5 (5=80-100%) | 5 (5=80-100%) | 5 (5=80-100%) | 5 (5=80-100%) | 5 (5=80-100%) | 5 (5=80-100%) |
| Cn1nnnc1NC(=O)c1nc2ccccc2n(-c2ccccc2)c1=O [Compound 5.004] | 2 (2=20-39%) | 5 (5=80-100%) | 3 (3=40-59%) | 5 (5=80-100%) | 5 (5=80-100%) | 2 (2=20-39%) | 3 (3=40-59%) | 5 (5=80-100%) | 5 (5=80-100%) | 5 (5=80-100%) | 4 (4=60-79%) | 5 (5=80-100%) |
| Cn1nnnc1NC(=O)c1nc2ccccc2n(-c2ccsc2)c1=O [Compound 5.005] | 2 (2=20-39%) | 5 (5=80-100%) | 5 (5=80-100%) | 5 (5=80-100%) | 5 (5=80-100%) | 5 (5=80-100%) | 2 (2=20-39%) | 5 (5=80-100%) | 5 (5=80-100%) | 5 (5=80-100%) | 3 (3=40-59%) | 5 (5=80-100%) |
| Cn1nnnc1NC(=O)c1nc2ccc(C(F)(F)F)cc2n(-c2ccccc2)c1=O [Compound 5.006] | 3 (3=40-59%) | 5 (5=80-100%) | 4 (4=60-79%) | 5 (5=80-100%) | 5 (5=80-100%) | 4 (4=60-79%) | 3 (3=40-59%) | 5 (5=80-100%) | 4 (4=60-79%) | 4 (4=60-79%) | 3 (3=40-59%) | 5 (5=80-100%) |
| Cn1nnnc1NC(=O)c1nc2cc(Cl)ccc2n(-c2ccccc2)c1=O [Compound 5.007] | 2 (2=20-39%) | 5 (5=80-100%) | 2 (2=20-39%) | 5 (5=80-100%) | 5 (5=80-100%) | 5 (5=80-100%) | 2 (2=20-39%) | 5 (5=80-100%) | 2 (2=20-39%) | 5 (5=80-100%) | 5 (5=80-100%) | 5 (5=80-100%) |
| Cn1nnnc1NC(=O)c1nc2ccc(Cl)cc2n(-c2ccccc2)c1=O [Compound 5.008] | 2 (2=20-39%) | 5 (5=80-100%) | 2 (2=20-39%) | 5 (5=80-100%) | 5 (5=80-100%) | 5 (5=80-100%) | 2 (2=20-39%) | 5 (5=80-100%) | 2 (2=20-39%) | 5 (5=80-100%) | 5 (5=80-100%) | 5 (5=80-100%) |
| COc1ccc(-n2c(=O)c(C(=O)Nc3nnnn3C)nc3ccccc32)cc1 [Compound 5.009] | 1 (1=0-19%) | 5 (5=80-100%) | 4 (4=60-79%) | 3 (3=40-59%) | 5 (5=80-100%) | 2 (2=20-39%) | 2 (2=20-39%) | 5 (5=80-100%) | 5 (5=80-100%) | 5 (5=80-100%) | 1 (1=0-19%) | 5 (5=80-100%) |
| Cc1cccc(-n2c(=O)c(C(=O)Nc3nnnn3C)nc3ccccc32)c1 [Compound 5.011] | 2 (2=20-39%) | 5 (5=80-100%) | 4 (4=60-79%) | 5 (5=80-100%) | 5 (5=80-100%) | 5 (5=80-100%) | 2 (2=20-39%) | 5 (5=80-100%) | 4 (4=60-79%) | 5 (5=80-100%) | 4 (4=60-79%) | 5 (5=80-100%) |
